Laboratory results published in paper PMC7881012, “Human ACE2 peptide-mimics block SARS-CoV-2 pulmonary cells infection” (Communications Biology, 2021).
Read-outs that look alike come from different tables or passages of the source. Square brackets hold non-standard residues; d marks the D form. Ends that are not written are not given here. Peptide text beside a SMILES is read from it. hTyr = N[C@@H](CCc1ccc(O)cc1)C(=O)O

Legend:
[1] = Solubility (qualitative); format: physicochemical; settings: qualitative statement
[2] = test system: SARS-CoV-2 clinical isolate SARS-CoV-2/PSL2020 in Vero-E6 cells; settings: for % Inhibition, Moyenne / % Inhibition, Q2 (Median): clinical isolate /PSL2020 in Vero-E6 cells, 48 h, 10 µM
[3] = test system: SARS-CoV-2 clinical isolate SARS-CoV-2/PSL2020 in Calu-3 cells; settings: clinical isolate /PSL2020 in Calu-3 cells, 48 h
[4] = Helical content by circular dichroism; format: physicochemical; settings: 60 µM peptide, 50 mM sodium phosphate buffer pH 7.4, 25 °C, DichroWeb CDSSTR deconvolution
Source text: The conformation of synthesized peptides in aqueous solution was investigated by circular dichroism (CD) spectroscopy. […] The deconvolution of the CD spectra using DichroWeb[25] allowed us to estimate the helical population for each peptide, which is reported in Table 1. Overall, an excellent agreement was observed between the Agadir-computed values and the experimental helical population inferred from CD data. […] The introduction of a proline residue in peptide P5 has a strong destabilizing effect on helical conformation (17%) whereas Leu/hTyr substitution only led to a slight decrease of the helical content (P7 versus P6 and P10 versus P8).
Fig. 2 Far-UV CD spectra of synthesized peptides. […] CD measurements are reported as molar ellipticity per residue.
CD spectra were recorded on a Jasco J-815 CD spectropolarimeter equipped with a Peltier temperature controller. Data were obtained at 25 °C over a wavelength range between 185 nm and 270 nm, using a wavelength interval of 0.2 nm and a scan rate of 20 nm min^−1. Peptide samples were prepared at a concentration of 60 µM in 50 mM sodium phosphate buffer, pH 7.4, in a quartz cell of 1 mm path length. CD experiments were processed and plotted with R program. CD spectra were analyzed using DICHROWEB web server and CDSSTR deconvolution algorithm.

[5] = HPLC retention time (LC-MS method B); format: physicochemical; settings: method B: X-Select CSH C18 XP, 0.1% formic acid water/acetonitrile, 5-100% B in 3.2 min, 1.8 mL min^−1, 40 °C; used as indicator of hydrophobicity
[6] = test system: Calu-3 cells
[7] = test system: SARS-CoV-2 clinical isolate SARS-CoV-2/PSL2020 in Calu-3 cells; format: cell-based
[8] = test system: Vero-E6 cells; settings: 10 µM
[9] = molecular target: SARS-CoV-2 spike RBD (Fc-tagged 2019-nCoV RBD-SD1) (Severe acute respiratory syndrome coronavirus 2, UniProt P0DTC2); test: biochemical; format: binding; settings: for kon: read-out: ka, association constant; for koff: read-out: kdis, dissociation constant
[10] = test system: Calu-3 cells; settings: 10 μM (150 times the IC50); MTT and annexin-V/PI, 24, 48 or 72 h (Fig. 3f)
[11] = test system: Vero-E6 cells; settings: for toxicity in Vero-E6: MTT 0.1-10 µM and annexin-V/PI 10 µM, 24, 48 or 72 h (Fig. 3c)
[12] = EXP1, peptide 10 µM, 24 h (0 µM: 16%)
[13] = EXP1, peptide 10 µM, 48 h (0 µM: 18%)
[14] = EXP1, peptide 10 µM, 72 h (0 µM: 23%)
[15] = EXP2, peptide 10 µM, 24 h (0 µM: 13%)
[16] = EXP2, peptide 10 µM, 48 h (0 µM: 17%)
[17] = EXP2, peptide 10 µM, 72 h (0 µM: 20%)
[18] = EXP3, peptide 10 µM, 24 h (Vehicle: 15%)
[19] = EXP3, peptide 10 µM, 48 h (Vehicle: 18%)
[20] = EXP3, peptide 10 µM, 72 h (Vehicle: 22%)
[21] = BLI EXP1, sample conc. ACE2 10 nM, P8 100 nM, P9 and P10 1000 nM
[22] = BLI EXP2, sample conc. ACE2 100 nM, P8 1000 nM, P9 and P10 1111 nM
[23] = BLI EXP3, sample conc. ACE2 100 nM, P9 10000 nM, P10 1000 nM

Compound | solubility [1] | % Inhibition, Moyenne [2] | % Inhibition, Q2 (Median) [2] | IC50 [3] | Experimental helical content% [4] | RT, HPLC retention time [5] | Cell death (AnnV+PI) [6, 12] | Cell death (AnnV+PI) [6, 13] | Cell death (AnnV+PI) [6, 14] | Cell death (AnnV+PI) [6, 15] | Cell death (AnnV+PI) [6, 16] | Cell death (AnnV+PI) [6, 17] | Cell death (AnnV+PI) [6, 18] | Cell death (AnnV+PI) [6, 19] | Cell death (AnnV+PI) [6, 20] | SARSCoV-2 virus titer at 1 μM (PFU mL^−1) on Calu-3 [7] | Cell death (AnnV+PI) ([8]; 24 h, EXP1, flow cytometry) | Cell death (AnnV+PI) ([8]; 24 h, EXP2, flow cytometry) | Cell death (AnnV+PI) ([8]; 24 h, EXP3, flow cytometry) | Cell death (AnnV+PI) ([8]; 48 h, EXP1, flow cytometry) | other results
CC(C)C[C@H](NC(=O)[C@H](C)NC(=O)[C@H](CC(C)C)NC(=O)[C@H](C)NC(=O)[C@H](CC(C)C)NC(=O)[C@H](CCC(N)=O)NC(=O)[C@H](Cc1ccc(O)cc1)NC(=O)[C@H](CC(C)C)NC(=O)[C@H](CC(C)C)NC(=O)[C@H](CC(=O)O)NC(=O)[C@H](CCC(=O)O)NC(=O)[C@H](CC(C)C)NC(=O)[C@H](CCC(=O)O)NC(=O)[C@H](Cc1c[nH]cn1)NC(=O)[C@H](CC(C)C)NC(=O)[C@H](Cc1ccccc1)NC(=O)[C@H](CCCCN)NC(=O)[C@H](CC(=O)O)NC(=O)[C@H](CC(C)C)NC(=O)[C@H](Cc1ccccc1)NC(=O)[C@@H](NC(=O)[C@H](CCCCN)NC(=O)[C@H](CCc1ccc(O)cc1)NC(=O)[C@H](CCC(N)=O)NC(=O)[C@H](CCC(=O)O)NC(=O)[C@H](CCC(=O)O)NC(=O)[C@H](CC(C)C)NC(=O)[C@H](C)NC(=O)[C@@H](N)CO)[C@@H](C)O)C(N)=O [P7] (H-SALEEQ[hTyr]KTFLDKFLHELEDLLYQLALAL-NH2) | slight increase in solubility | 53.7% | 43.4% | > 1 µM | 63% | 2,57 min | – | – | – | – | – | – | – | – | – | – | – | – | – | – | % Inhibition of SARSCoV-2 replication at 10 μM ([2]; […], mean of at least three independent experiments): 54%
SALEEQLKTFLDKFMHELEDLLYQLAL-NH2 [P8] | highly soluble | – | – | 0.046 µM | 70% | 2,45 min | 23% | 20% | 18% | 16% | 19% | 22% | 23% | 20% | 18% | 0 PFU mL^−1 | 3.74% | 3.24% | 5% | 5.63% | Cell death (AnnV+PI) ([8]; 48 h, EXP2, flow cytometry): 4.63%; Cell death (AnnV+PI) ([8]; 48 h, EXP3, flow cytometry): 4.26%; Cell death (AnnV+PI) ([8]; 72 h, EXP1, flow cytometry): 4%; Cell death (AnnV+PI) ([8]; 72 h, EXP2, flow cytometry): 3%; Cell death (AnnV+PI) ([8]; 72 h, EXP3, flow cytometry): 3.48%; kon [9, 21]: 5610 M⁻¹ s⁻¹; koff [9, 21]: 8.94e-05 s⁻¹; kon [9, 22]: 4310 M⁻¹ s⁻¹; koff [9, 22]: 0.000137 s⁻¹; cytotoxicity in uninfected Calu-3 cells [10]: no cytotoxicity; Cell viability (MTT) ([11]; 72 h, 0.1 µM): 98%; toxicity in Vero-E6 [11]: devoid of toxicity
CSCC[C@H](NC(=O)[C@H](Cc1ccccc1)NC(=O)[C@H](CCCCN)NC(=O)[C@H](CC(=O)O)NC(=O)[C@H](CC(C)C)NC(=O)[C@H](Cc1ccccc1)NC(=O)[C@@H](NC(=O)[C@H](CCCCN)NC(=O)[C@H](CCc1ccc(O)cc1)NC(=O)[C@H](CCC(N)=O)NC(=O)[C@H](CCC(=O)O)NC(=O)[C@H](CCC(=O)O)NC(=O)[C@H](CC(C)C)NC(=O)[C@H](C)NC(=O)[C@@H](N)CO)[C@@H](C)O)C(=O)N[C@@H](Cc1c[nH]cn1)C(=O)N[C@@H](CCC(=O)O)C(=O)N[C@@H](CC(C)C)C(=O)N[C@@H](CCC(=O)O)C(=O)N[C@@H](CC(=O)O)C(=O)N[C@@H](CC(C)C)C(=O)N[C@@H](CC(C)C)C(=O)N[C@@H](Cc1ccc(O)cc1)C(=O)N[C@@H](CCC(N)=O)C(=O)N[C@@H](CC(C)C)C(=O)N[C@@H](CO)C(=O)N[C@@H](CC(C)C)C(N)=O [P9] (H-SALEEQ[hTyr]KTFLDKFMHELEDLLYQLSL-NH2) | – | 94.5% | 94.5% | 0.053 µM | 53% | 2,31 min | 21% | 19% | 19% | 16% | 19% | 23% | 20% | 20% | 22% | 0 PFU mL^−1 | 3.3% | 4.72% | 3.62% | 9% | efficacy in reducing SARS-CoV-2 viral titers ([7]; pulmonary cells, 1 µM): 100%; Cell death (AnnV+PI) ([8]; 48 h, EXP2, flow cytometry): 7%; Cell death (AnnV+PI) ([8]; 48 h, EXP3, flow cytometry): 8%; Cell death (AnnV+PI) ([8]; 72 h, EXP1, flow cytometry): 4.4%; Cell death (AnnV+PI) ([8]; 72 h, EXP2, flow cytometry): 2.34%; Cell death (AnnV+PI) ([8]; 72 h, EXP3, flow cytometry): 2.25%; kon [9, 21]: 1020 M⁻¹ s⁻¹; koff [9, 21]: < 1e-07 s⁻¹; kon [9, 22]: 1100 M⁻¹ s⁻¹; koff [9, 22]: < 1e-07 s⁻¹; kon [9, 23]: 254 M⁻¹ s⁻¹; koff [9, 23]: < 1e-07 s⁻¹; Kd ([9]; Table 1 of the earlier manuscript version, quoted by Reviewer #2, superseded): < 0.001 µM; cytotoxicity in uninfected Calu-3 cells [10]: no cytotoxicity; Cell viability (MTT) ([11]; 48 h, 10 µM): 95%; toxicity in Vero-E6 [11]: devoid of toxicity
